Test results: patent US10738028B2, “Spiro three-membered ring, spiro five-membered ring peptide deformylase inhibitor and use thereof in antibacteria and anti-tumor” (priority 2016, dated 2020)

What was measured:
Type in all cases: cell-based
[1] = test system: methicillin-sensitive Staphylococcus epidermidis (MSSE); test: MIC, two-fold agar dilution (CLSI), clinical isolates
Excerpt: (§1) 1. The invention adopts the two-fold agar dilution method recommended by the operating procedure of antimicrobial susceptibility testing set by American Clinical and Laboratory Standards Institute (CLSI) to determine the Minimum Inhibitory Concentration (MIC) of the test samples against the tested strains.

[2] = test system: Enterococcus faecium (EFM); test: as above
Excerpt: as §1

[3] = test system: Escherichia coli (including ESBLs, non-ESBLs); test: as above
Excerpt: as §1

[4] = test system: Streptococcus pneoumoniae (SPN); test: as above
Excerpt: as §1

[5] = test system: Moraxella catarrhalis (BCA); test: as above; details: for Anti-bacterial activity (MIC), strain BCA 14-10: clinical isolate BCA 14-10
Excerpt: as §1

[6] = test system: methicillin-sensitive Staphylococcus aureus (MSSA); test: as above
Excerpt: as §1

[7] = test system: Enterococcus faecalis (EFA); test: as above
Excerpt: as §1

[8] = test system: methicillin-resistant Staphylococcus epidermidis (MRSE); test: as above
Excerpt: as §1

[9] = test system: methicillin-resistant Staphylococcus aureus (MRSA); test: as above
Excerpt: as §1

[10] = test system: HCT-116 colorectal cancer cell line; test: CCK-8 proliferation inhibition; details: Homo sapiens, HCT-116, 72 h, concentration of 30 μM; 72 hours; CCK-8; read-out: HCT116 inhibition rate/%
Summary of the method: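 2000 cells/well, McCoy's 5A + 10% newborn bovine serum; overnight attach, 37° C./5% CO2. Cpd from DMSO stock diluted in medium, 72 h. Readout: CCK-8 (1:10). Ctrl 1‰ DMSO.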

O=CN(O)C[C@@H](CC1CCCC1)C(=O)N1CC2(CC2)C[C@H]1C(=O)Nc1ccc(F)cn1 [Example 28]
0.125 µg/mL: MIC (anti-bacterial activity) ([1]; strain MSSE 15-3) | MIC (anti-bacterial activity) ([1]; strain MSSE 15-4) | MIC (anti-bacterial activity) ([1]; strain MSSE 15-5) | MIC (anti-bacterial activity) ([2]; strain EFM 15-3) | MIC (anti-bacterial activity) ([5]; strain BCA 14-7) | MIC (anti-bacterial activity) ([6]; strain MSSA 15-3) | MIC (anti-bacterial activity) ([6]; strain MSSA 15-4) | MIC (anti-bacterial activity) ([6]; strain MSSA 15-5) | MIC (anti-bacterial activity) ([6]; strain MSSA 15-6) | MIC (anti-bacterial activity) ([8]; strain MRSE 15-1) | MIC (anti-bacterial activity) ([9]; strain MRSA 15-1) | MIC (anti-bacterial activity) ([9]; strain MRSA 15-2) | MIC (anti-bacterial activity) ([9]; strain MRSA 15-3) | MIC (anti-bacterial activity) ([9]; strain MRSA 15-4)
0.25 µg/mL: Anti-bacterial activity (MIC), strain BCA 14-10 [5] | MIC (anti-bacterial activity) ([5]; strain BCA 14-5)
0.5 µg/mL: MIC (anti-bacterial activity) ([2]; strain EFM 15-1) | MIC (anti-bacterial activity) ([5]; strain BCA 14-8) | MIC (anti-bacterial activity) ([8]; strain MRSE 15-2) | MIC (anti-bacterial activity) ([8]; strain MRSE 15-3) | MIC (anti-bacterial activity) ([8]; strain MRSE 15-7)
21%: inhibition at 30 µM [10]
32 µg/mL: MIC (anti-bacterial activity) ([3]; strain ECO+ 15-4) | MIC (anti-bacterial activity) ([3]; strain ECO− 15-1) | MIC (anti-bacterial activity) ([3]; strain ECO− 15-2)
64 µg/mL: MIC (anti-bacterial activity) ([3]; strain ECO+ 15-2) | MIC (anti-bacterial activity) ([3]; strain ECO+ 15-3) | MIC (anti-bacterial activity) ([3]; strain ECO− 15-3) | MIC (anti-bacterial activity) ([3]; strain ECO− 15-4)
2 µg/mL: MIC (anti-bacterial activity) ([7]; strain EFA 15-1) | MIC (anti-bacterial activity) ([7]; strain EFA 15-2) | MIC (anti-bacterial activity) ([7]; strain EFA 15-3) | MIC (anti-bacterial activity) ([7]; strain EFA 15-4) | MIC (anti-bacterial activity) ([7]; strain EFA 15-5) | MIC (anti-bacterial activity) ([7]; strain EFA 15-6) | MIC (anti-bacterial activity) ([7]; strain EFA 15-9)
16 µg/mL: MIC (anti-bacterial activity) ([3]; strain ECO+ 15-1)
1 µg/mL: MIC (anti-bacterial activity) ([2]; strain EFM 15-2) | MIC (anti-bacterial activity) ([2]; strain EFM 15-4) | MIC (anti-bacterial activity) ([2]; strain EFM 15-5) | MIC (anti-bacterial activity) ([2]; strain EFM 15-6) | MIC (anti-bacterial activity) ([4]; strain SPN 16-4) | MIC (anti-bacterial activity) ([5]; strain BCA 14-1) | MIC (anti-bacterial activity) ([5]; strain BCA 14-4) | MIC (anti-bacterial activity) ([5]; strain BCA 14-6)
0.06 µg/mL: MIC (anti-bacterial activity) ([1]; strain MSSE 15-6)

O=CN(O)C[C@@H](CC1CCCC1)C(=O)N1CC2(CC2)C[C@H]1C(=O)Nc1ncccc1F [Example 30, (S)-5-((R)-3-cyclopentyl-2-((N-hydroxyformamido)methyl)propionyl)-N-(3-fluoropyridin-2-yl)-5-spiro[2.4]heptane-6-carboxamide]
8 µg/mL: MIC (anti-bacterial activity) ([7]; strain EFA 15-9)
1 µg/mL: MIC (anti-bacterial activity) ([2]; strain EFM 15-2) | MIC (anti-bacterial activity) ([2]; strain EFM 15-4) | MIC (anti-bacterial activity) ([2]; strain EFM 15-6) | MIC (anti-bacterial activity) ([4]; strain SPN 16-4) | MIC (anti-bacterial activity) ([5]; strain BCA 14-5) | MIC (anti-bacterial activity) ([5]; strain BCA 14-7) | MIC (anti-bacterial activity) ([5]; strain BCA 14-8)
32 µg/mL: MIC (anti-bacterial activity) ([3]; strain ECO+ 15-1)
17%: inhibition at 30 µM [10]
> 32 µg/mL: MIC (anti-bacterial activity) ([3]; strain ECO+ 15-2) | MIC (anti-bacterial activity) ([3]; strain ECO+ 15-3) | MIC (anti-bacterial activity) ([3]; strain ECO+ 15-4) | MIC (anti-bacterial activity) ([3]; strain ECO− 15-1) | MIC (anti-bacterial activity) ([3]; strain ECO− 15-2) | MIC (anti-bacterial activity) ([3]; strain ECO− 15-3) | MIC (anti-bacterial activity) ([3]; strain ECO− 15-4)
2 µg/mL: MIC (anti-bacterial activity) ([1]; strain MSSE 15-3) | MIC (anti-bacterial activity) ([1]; strain MSSE 15-4) | MIC (anti-bacterial activity) ([1]; strain MSSE 15-5) | MIC (anti-bacterial activity) ([2]; strain EFM 15-1) | MIC (anti-bacterial activity) ([5]; strain BCA 14-1) | MIC (anti-bacterial activity) ([5]; strain BCA 14-4) | MIC (anti-bacterial activity) ([7]; strain EFA 15-6) | MIC (anti-bacterial activity) ([8]; strain MRSE 15-2) | MIC (anti-bacterial activity) ([8]; strain MRSE 15-3) | MIC (anti-bacterial activity) ([8]; strain MRSE 15-7)
0.25 µg/mL: MIC (anti-bacterial activity) ([2]; strain EFM 15-3)
4 µg/mL: MIC (anti-bacterial activity) ([2]; strain EFM 15-5) | MIC (anti-bacterial activity) ([4]; strain SPN 16-2) | MIC (anti-bacterial activity) ([5]; strain BCA 14-6) | MIC (anti-bacterial activity) ([7]; strain EFA 15-1) | MIC (anti-bacterial activity) ([7]; strain EFA 15-2) | MIC (anti-bacterial activity) ([7]; strain EFA 15-3) | MIC (anti-bacterial activity) ([7]; strain EFA 15-4) | MIC (anti-bacterial activity) ([7]; strain EFA 15-5)
0.5 µg/mL: MIC (anti-bacterial activity) ([1]; strain MSSE 15-6) | Anti-bacterial activity (MIC), strain BCA 14-10 [5] | MIC (anti-bacterial activity) ([6]; strain MSSA 15-3) | MIC (anti-bacterial activity) ([6]; strain MSSA 15-4) | MIC (anti-bacterial activity) ([6]; strain MSSA 15-5) | MIC (anti-bacterial activity) ([6]; strain MSSA 15-6) | MIC (anti-bacterial activity) ([8]; strain MRSE 15-1) | MIC (anti-bacterial activity) ([9]; strain MRSA 15-1) | MIC (anti-bacterial activity) ([9]; strain MRSA 15-2) | MIC (anti-bacterial activity) ([9]; strain MRSA 15-3) | MIC (anti-bacterial activity) ([9]; strain MRSA 15-4)
